Experimental data published in paper PMC10567728, “Targeted imaging of uPAR expression in vivo with cyclic AE105 variants” (Scientific Reports, 2023).
Like-named read-outs stand apart in the source and are kept apart here. Positions of bridges follow the written chain, without caps; N, C: chain ends. Non-standard residues stand in square brackets, D forms with d. Residues, ends and D or L forms follow the SMILES beside them. *: point of attachment. DOTA = O=C(O)CN1CCN(CC(=O)O)CCN(CC(=O)*)CCN(CC(=O)O)CC1; Cha = N[C@@H](CC1CCCCC1)C(=O)O

Experiments:
[1] = target: T1, uPAR•uPA interaction (Homo sapiens, UniProt Q03405); test: SPR competition assay of the uPAR•uPA interaction; format: binding; conditions: competition of uPAR•uPA interaction, 2 nM uPAR, 20 °C, n = 3
T1 construct: Recombinant human uPAR^1–283 was expressed; made in house; host or cells: Drosophila melanogaster S2 cells
T1 sequence (Q03405 23-305): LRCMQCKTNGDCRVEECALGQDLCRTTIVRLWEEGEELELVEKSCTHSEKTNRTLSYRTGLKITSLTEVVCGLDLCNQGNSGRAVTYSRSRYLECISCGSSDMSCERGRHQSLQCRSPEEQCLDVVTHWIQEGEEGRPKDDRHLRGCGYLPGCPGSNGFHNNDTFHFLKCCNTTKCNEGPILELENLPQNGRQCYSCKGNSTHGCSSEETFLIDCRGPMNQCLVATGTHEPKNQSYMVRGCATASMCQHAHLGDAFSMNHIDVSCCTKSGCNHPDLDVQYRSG
Protocol: The IC50-values of antagonistic peptides on the uPAR•uPA interaction were determined with SPR using a Biacore T200™ or Biacore 3000™ instruments (Cytiva) essentially as described[4],[56],[77]. In brief, we immobilized high levels of pro-uPA^S356A (0.1 pmol pro-uPA/mm^2) on a CM5 sensor chip via amine coupling. The experiments were conducted by injecting 2 nM uPAR in presence of a threefold dilution series of a given antagonistic peptide for 300 s with a flow rate of 50 µL/min at 20 °C. The high immobilization levels result in binding conditions that are entirely controlled by mass transport limitations (MTL). Accordingly, the observed association rates (vobs) are directly proportional to the concentrations of binding-active uPAR in solution. To determine the IC50, we also measured a standard curve of uPAR binding (a twofold dilution series of 0.06 to 2 nM uPAR, linear due to MTL). The running buffer was 10 mM HEPES, 150 mM NaCl, 3 mM EDTA, and 0.05% (v/v) surfactant P-20 at pH 7.4, and the regeneration buffer was 0.1 M acetic acid in 0.5 M NaCl.

[2] = target: T2, uPAR (Homo sapiens, UniProt Q03405); test: SPR real-time binding kinetics, peptides in solution and immobilised uPAR
T2 construct: Recombinant human uPAR^1–283 was expressed; made in house; host or cells: Drosophila melanogaster S2 cells
T2 sequence (Q03405 23-305): as above
Protocol: The real-time binding kinetics of uPAR•peptide interactions were measured with SPR using a Biacore T200™(Cytiva); essentially as described in[56],[77]. In brief, uPAR was covalently immobilised on a CM5 sensor chip via amine coupling resulting in a surface density of 1157–1581 RU (~ 33–44 fmol/mm^2). The binding kinetics for the peptides to immobilised uPAR were measured using a single cycle protocol. In this setup, peptides were injected as five serial two-fold dilutions with a contact time of 200 s. After the last analyte injection, the dissociation time was set to 1000 s. The sensor chip was regenerated with two consecutive injections of 0.1 M acetic acid in 0.5 M NaCl. All experiments were conducted at 20 °C with a flow rate of 50 µL/min in 10 mM HEPES, 150 mM NaCl, 3 mM EDTA, and 0.05% (v/v) surfactant P-20 at pH 7.4. The kinetic rate constants (kon and koff) were determined by non-linear regression fitting of the curves to the simple bimolecular interaction model (BiacoreT200 Evaluation™ 3.0 software).

[3] = target: T2, uPAR; test: Nano-DSF thermal stability of uPAR•peptide complexes
Protocol: The thermal stability of the uPAR•peptide complexes was analyzed with Nano-DSF using a Prometheus NT.48™ (Nanotemper). uPAR (15 µM) was mixed with twofold excess of peptide (30 µM) in PBS pH 7.4 and incubated for 15 min at RT to ensure complex formation. Samples containing either 15 µM uPAR or 30 µM of each peptide were included as controls. The samples were loaded into standard capillaries and in triplicates. To unfold the proteins, the samples were exposed to an increasing temperature gradient from 20 to 95 °C with a ramping rate of 1 °C/min. The excitation power was set to 50% (Ex.280 nm) and the fluorescence emission collected at 330 nm and 350 nm. The melting temperatures of the complexes were determined in the PR.ThermControl software (Nanotemper) from the first derivative of the fluorescence ratio (350 nm/330 nm).

[4] = tested on: uPAR expression in U87MG tumor-bearing mice; format: in vivo; conditions: [64Cu]Cu-DOTA peptides
Protocol: Five weeks old female NMRI nude mice were purchased from Janvier (Le Genest-Saint-Isle, France) and housed in groups to acclimatize for a week upon arrival with light/dark period of 12/12 h and under controlled environmental conditions (temperature: 20–22 °C, relative humidity: 55%). Access to fresh water and standard pellet diet was provided ad libitum. Human glioblastoma cancer cell line U87MG (ATCC, Manassas, USA) was cultured in Dulbecco’s modified eagle medium (DMEM) supplemented with 10% fetal bovine serum and 1% penicillin–streptomycin at 37 °C and 5% CO2. Cells were harvested by trypsinization at a confluence of 70–90%. Mice were anesthetized (3–4% sevoflurane in 65% N2 and 35% O2) and ~ 4 × 10^6 U87MG cells resuspended in 100 μL PBS were injected subcutaneously into the right flank. Tumors were allowed to grow for 20 days. Tumor sizes were monitored using caliper measurements (Volume = 0.5 x (Length x Width^2)).
Tumor-bearing mice (tumor volumes (mean ± SD) of 221 ± 105 mm^3) were grouped (n = 6 per group) and anesthetized (3–4% sevoflurane in 65% N2 and 35% O2) prior to imaging. The four different [^64Cu]Cu–DOTA conjugated peptides were administered via tail vein injections of 5.4 ± 0.4 MBq corresponding to 118 ± 7 pmol (1b), 111 ± 4 pmol (8b), 92 ± 3 pmol (9b), and 75 ± 4 pmol (11b) (mean ± SD). Whole-body imaging consisting of a CT acquisition followed by a static PET acquisition was performed on an Inveon® small animal imaging system (Siemens Medical Systems, Malvern, PA, USA). PET/CT imaging was performed 1 h, 22 h, and 46 h post-injection (p.i.) of tracer with a 5 min, 10 min and 15 min PET scan, respectively. During scans the animals were placed on a heated bedding system to keep the body temperature stable. The PET acquisition was performed with an energy window of 350–650 keV and a time resolution of 6 ns, and data was corrected for dead time and decay. The CT scan consisted of 360 projections, with a tube voltage of 65 kV, a tube current of 500 μA and an exposure time of 400 ms per projection. Sinograms from PET scans were reconstructed using a 3-dimensional maximum a posteriori algorithm with correction for scatter and attenuation (CT-based). PET and CT images were co-registered and analyzed using Inveon Research Workplace software (Siemens Medical Solutions). The mean percentage of injected dose per grams (%ID/g) in different tissues was extracted by manually creating regions of interest (ROI) on fused PET/CT images.

[5] = tested on: U87MG tumor-bearing mice; test: Ex vivo biodistribution by gamma-counting of resected organs; format: in vivo; conditions: [64Cu]Cu-DOTA peptides, ex vivo at 46 h; also tumor to muscle or heart ratios
Protocol: After the last PET/CT scan at 46 h p.i., mice were euthanized by cervical dislocation under anesthesia, and tumor, blood, heart, lung, liver, spleen, kidney, and muscle tissue were resected. All tissues were weighted, and the radioactivity measured in a gamma counter (Wizard2, Perkin Elmer). Data was corrected for decay, tissue weight and injected amount of radioactivity.

[6] = [63Cu]-DOTA labelled peptides, single-cycle SPR

CC(C)C[C@@H]1NC(=O)[C@H](Cc2ccc(O)cc2)NC(=O)[C@H](NC(=O)[C@@H](CO)NC(=O)[C@H](Cc2ccccc2)NC(=O)[C@H](CC2CCCCC2)NC(=O)[C@H](CC(=O)O)NC(=O)CN2CCN(CC(=O)O)CCN(CC(=O)O)CCN(CC(=O)O)CC2)CSSC[C@@H](C(N)=O)NC(=O)[C@H](Cc2c[nH]c3ccccc23)NC1=O [9b] ({DOTA}-D[Cha]F[dS][dC]YLWC-NH2; disulfide 5-9) was tested, and the IC50 [1] was 7.3 ± 0.2 nM, the Kd [2, 6] was 22 nM and the koff [2, 6] was 0.00659 ± 2e-05 s⁻¹. The kon [2, 6] was 2.99 ± 0.04 105 M-1 s-1, the koff ([2]; single cycle SPR, immobilised uPAR, 20 °C) was 0.002744 ± 4e-06 s⁻¹ and the Kd ([2]; single cycle SPR, immobilised uPAR, 20 °C, 1:1 model) was 4.26 nM. For the same molecule, the kon ([2]; single cycle SPR, immobilised uPAR, 20 °C, read-out: kon) was 644000 ± 2000 M⁻¹ s⁻¹, the “Tm (apparent melting temperature of uPAR•peptide complex)” value ([3]; 15 µM uPAR, 30 µM peptide, PBS pH 7.4, n = 3) was ≥ 70 °C and the “increase in apparent Tm” value ([3]; DOTA-conjugated peptides, compared to (1b)) was “approximately 11 °C”. For the same molecule, the “tumor uptake and tumor-to-organ ratios compared to linear control (8b)” value [4] was “significant albeit weak improvement”, the “difference in tumor max compared to (8b)” value ([4]; PET at 22 h) was “statistically significant” and the “tracer uptake compared to (8b)” value ([4]; all PET scans (1 h, 22 h, 46 h)) was “small but consistently higher uptake”. The “difference in activity of resected tumors compared to (8b)” value [5] was “statistically significant”.
